What all share (format): cell-based
The target in series [1] is T1, Aryl hydrocarbon receptor (Homo sapiens, UniProt P35869).
T1 sequence (P35869 whole entry): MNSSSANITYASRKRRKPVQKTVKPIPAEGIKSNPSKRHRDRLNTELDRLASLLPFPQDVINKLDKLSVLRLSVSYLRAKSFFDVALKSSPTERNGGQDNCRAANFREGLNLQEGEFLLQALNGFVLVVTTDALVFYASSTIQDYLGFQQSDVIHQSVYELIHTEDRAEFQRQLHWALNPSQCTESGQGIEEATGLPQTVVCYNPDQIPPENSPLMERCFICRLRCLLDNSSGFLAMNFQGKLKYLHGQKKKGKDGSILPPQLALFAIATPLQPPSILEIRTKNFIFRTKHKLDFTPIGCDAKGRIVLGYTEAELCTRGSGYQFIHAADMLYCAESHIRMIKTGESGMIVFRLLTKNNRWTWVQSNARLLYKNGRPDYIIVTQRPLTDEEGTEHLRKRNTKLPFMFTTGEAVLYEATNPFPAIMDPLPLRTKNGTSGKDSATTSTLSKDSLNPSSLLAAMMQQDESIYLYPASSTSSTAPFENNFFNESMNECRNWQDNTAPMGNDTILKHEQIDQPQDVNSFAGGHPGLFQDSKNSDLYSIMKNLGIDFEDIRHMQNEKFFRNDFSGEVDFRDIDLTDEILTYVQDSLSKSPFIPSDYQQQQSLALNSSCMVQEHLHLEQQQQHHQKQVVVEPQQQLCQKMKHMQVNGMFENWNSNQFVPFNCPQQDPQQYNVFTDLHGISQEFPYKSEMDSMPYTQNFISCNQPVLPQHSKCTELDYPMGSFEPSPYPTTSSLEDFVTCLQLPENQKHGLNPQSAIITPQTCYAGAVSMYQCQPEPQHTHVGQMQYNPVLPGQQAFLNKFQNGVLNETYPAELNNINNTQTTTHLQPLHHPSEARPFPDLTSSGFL
The experiment in a line: Agonist activity at AhR in human HepG2 cells at 1 to 10 uM after 42 hrs by luciferase reporter gene assay relative to control. Background: Reporter assays use an easily measured gene product as a stand-in for the process of interest.

Series [2] concerns the target T1, Aryl hydrocarbon receptor. Briefly: Agonist activity at AhR in human HepG2 cells at 5 to 20 nM after 42 hrs in presence of AhR antagonist 3',4'-DMF by luciferase reporter gene assay.
The target in series [3] is T1, Aryl hydrocarbon receptor. Briefly: Agonist activity at AhR in human HuH7 cells assessed as reduction in IL-1beta induced increase in SAA1 mRNA level at 10 nM pretreated for 20 hrs followed by Il-1beta addition measured after 4 hrs by qRT-PCR analysis. The note with it: 0.01 µM.
For series [4], the target named is T1, Aryl hydrocarbon receptor. The experiment in a line: Agonist activity at AhR in human HepG2 cells at 5 to 20 nM after 42 hrs in presence of AhR antagonist GNF-351 by luciferase reporter gene assay.
For series [5], the system named is HepG2. The experiment in a line: Cytotoxicity against human HepG2 cells at 1 uM. Conditions: hepg2, 1 µM; call rule not given here.
Series [6] concerns the target T1, Aryl hydrocarbon receptor. The experiment in a line: Agonist activity at AhR in human HepG2 cells at 10 uM after 42 hrs by luciferase reporter gene assay relative to control. Conditions: read-out: FC.
Series [7] addresses T1, Aryl hydrocarbon receptor. The experiment in a line: Agonist activity at AhR in human HepG2 cells at 2.5 to 10 uM after 42 hrs in presence of AhR antagonist GNF-351 by luciferase reporter gene assay.
For series [8], the target named is T1, Aryl hydrocarbon receptor. Briefly: Agonist activity at AhR in human HuH7 cells assessed as reduction in IL-1beta induced increase in SAA1 mRNA level at 10 uM pretreated for 20 hrs followed by Il-1beta addition measured after 4 hrs by qRT-PCR analysis.
In series [9] the target is T1, Aryl hydrocarbon receptor. Briefly: Agonist activity at AhR in human HepG2 cells after 42 hrs by luciferase reporter gene assay.
Series [10] deals with HepG2. Briefly: Cytotoxicity against human HepG2 cells at 20 uM. The note with it: hepg2, 20 µM.
Series [11] addresses T1, Aryl hydrocarbon receptor. Briefly: Agonist activity at AhR in human HepG2 cells at 2.5 to 10 uM after 42 hrs in presence of AhR antagonist CH-223191 by luciferase reporter gene assay.
Series [12] addresses T1, Aryl hydrocarbon receptor. The experiment in a line: Agonist activity at AhR in human HepG2 cells at 2.5 to 10 uM after 42 hrs in presence of AhR antagonist 3',4'-DMF by luciferase reporter gene assay.

Results on seven compounds are retold here after ChEMBL document CHEMBL4052721, “Gerontoxanthone B from Maclura cochinchinensis var. gerontogea exhibits anti-inflammatory potential as an aryl hydrocarbon receptor agonist” (Bioorg Med Chem, 2017).

As to `CC(C)=CCc1c(O)cc(O)c2c(=O)c3c(CC=C(C)C)c(O)ccc3oc12` [GERONTOXANTHONE H], the “fold change (FC)” value in [1] is reported as “>= 2”.
`Clc1cc2c(cc1Cl)Oc1cc(Cl)c(Cl)cc1O2` [2,3,7,8-TETRACHLORODIBENZO-P-DIOXIN]: the Activity result in series [2] is recorded as “Not Active”; in series [3], “Active”; in series [4], “Not Active”.
Regarding `CC1Oc2cc3oc4c(O)c5c(cc4c(=O)c3c(O)c2C1(C)C)C=CC(C)(C)O5` (stereo unspecified) [GERONTOXANTHONE A], the “fold change (FC)” value in series [1] is recorded as “>= 2”. The Activity entry with HepG2 [5] is recorded as “Toxic”.
As for `CC(C)=CCc1c(O)ccc2oc3c4c(cc(O)c3c(=O)c12)OC(C)(C)C=C4`, the fold induction at 10 µM in series [6] was no less than 2.
For the compound `C=CC(C)(C)c1c(O)cc2oc3c(O)c(OCC=C(C)C)ccc3c(=O)c2c1O`, the “fold change (FC)” value in series [1] is listed as “>= 2”.
Consider `C=CC(C)(C)c1c(O)cc2oc3c(O)c4c(cc3c(=O)c2c1O)C=CC(C)(C)O4` [GERONTOXANTHONE B], for which the Activity entry in [7] was “Not Active”; in [8], “Active”; in [9] it was “Dose-dependent effect”; in the series on HepG2 [10], “Toxic”; in [11], “Active”; in series [12], “Not Active”. The “fold change (FC)” value in [1] is recorded as “>= 2”.
For the compound `C=CC(C)(C)c1c(O)c(CC=C(C)C)c(O)c2c(=O)c3ccc(O)c(O)c3oc12` [GERONTOXANTHONE I], the fold induction at 10 µM in series [6] is no less than 2.
